According to patent US20040038222A1 (priority 2001, published 2004):

Test system: C57BL/6J and C3H/HeJ primary bone marrow-derived macrophages

## brefeldin A [BFA]
  Effect of BFA alone on viability: no effect
  Susceptibility of resistant macrophages to intoxication with LF in the presence of BFA: completely susceptible
